# According to patent US8658787B2, “Galacto-rhamnogalacturonate compositions for the treatment of non-alcoholic steatohepatitis and non-alcoholic fatty liver disease” (Galectin Therapeutics Inc., priority 2011, dated 2014):
# Tested on: STAM mice
# Assay: STAM mouse model of steatohepatitis (diabetes induced, high fat diet), treatment with GR-MD-02
# Type: in vivo
# Description: The experimental model used in this example is the mouse in which diabetes was induced and a high fat diet was administered, a model that has been called STAM mice. […] This is a proven model in which the mice consistently develop NASH with hepatocyte fat accumulation, evidence of hepatocyte toxicity, portal and lobular inflammatory infiltrates, peri-sinusoidal fibrosis, advanced fibrosis with nodule formation, cirrhosis, and ultimately hepatocellular carcinoma in a certain percentage of animals.
# The progression of disease appearance is fatty liver (FL) by five weeks of age, steatohepatitis (NASH) by 7 weeks of age, fibrosis (Fib) by 9 weeks of age, nodule formation (N) by 13 weeks of age, and some animals developing hepatocellular carcinoma (HC) by 16 weeks of age (FIG. 1).
# GR-MD-02, produced as described in Example 1, was given in a dose of 60 mg/kg twice weekly intravenously for four (4) weeks at the each of the starting times indicated. Early treatment was given for weeks 6 through 9 and late therapy was given for weeks 9 through 12.
# The NFLD activity score was used to evaluate the severity of liver disease on histological sections of liver and gives points for three aspects of NASH pathology including, steatosis (0 (<5%), 1 (5-33%), 2 (33-66%), or 3 (>66%)), hepatocyte ballooning (0 (none), 1, (few), or […]), and lobular inflammation (0 (no foci), 1 (<2 foci/200× field), 2 (2-4 foci/200× field), or 3 (>4 foci/200× field)). The total number of points is the NFLD activity score.
substance,measurement,setting,value
galacto-rhamnogalacturonate [GR-MD-02],whole blood glucose,"60 mg/kg twice weekly i.v., early or late treatment schedule, vs vehicle control",no statistical differences
same,changes in body weight,"60 mg/kg twice weekly intravenously, early (weeks 6-9) and late (weeks 9-12) treatment, vs vehicle (normal saline)",no difference in body weight
same,Sirius red staining of liver histology,"early (6-9 weeks) and late (9-12 weeks) treatment groups, vs vehicle control",marked reduction in Sirius red staining
same,"collagen percent area (Sirius red, computer assisted morphometric analysis)","early and late treatment groups and both combined, vs vehicle",markedly statistically significantly reduced
same,NFLD activity score on liver histology (average),"early treatment group (weeks 6-9), 60 mg/kg twice weekly i.v., vehicle average 5, p<0.01 vs vehicle",3
same,"alpha-Smooth Muscle Actin in liver tissue (immunohistochemical staining, digital morphometry)","marker for activated stellate cells, vs vehicle",marked reduction in alpha-Smooth Muscle Actin
same,"galectin-3 in liver tissue (immunohistochemical staining, digital morphometry)",vs vehicle treated animals,marked reduction of galectin-3
